Test results from patent US8889875B2, “Pyridyl derivatives as CFTR modulators” (Vertex Pharmaceuticals Incorporated, priority 2008, dated 2014).

Target: T1, ΔF508-CFTR (Homo sapiens, UniProt P13569, DEL508-508)
T1 construct: expressed in transfected cells
Test: Membrane potential optical assay, identification of correction compounds (single-addition HTS format)
Assay type: cell-based
Conditions: PercentActivity; ΔF508-CFTR in NIH3T3 mouse fibroblasts; 16-24 hrs with compound; 10 μM forskolin and 20 μM genistein; read-out: BinnedMaxEfficacy
Text: Membrane Potential Optical Methods for Assaying ΔF508-CFTR Modulation Properties of Compounds.
The assay utilizes fluorescent voltage sensing dyes to measure changes in membrane potential using a fluorescent plate reader (e.g., FLIPR III, Molecular Devices, Inc.) as a readout for increase in functional ΔF508-CFTR in NIH 3T3 cells. The driving force for the response is the creation of a chloride ion gradient in conjunction with channel activation by a single liquid addition step after the cells have previously been treated with compounds and subsequently loaded with a voltage sensing dye.
To identify small molecules that correct the trafficking defect associated with ΔF508-CFTR; a single-addition HTS assay format was developed. Assay Plates containing cells are incubated for ˜2-4 hours in tissue culture incubator at 37° C., 5% CO2, 90% humidity. Cells are then ready for compound exposure after adhering to the bottom of the assay plates.
The cells were incubated in serum-free medium for 16-24 hrs in tissue culture incubator at 37° C., 5% CO2, 90% humidity in the presence or absence (negative control) of test compound. The cells were subsequently rinsed 3× with Krebs Ringers solution and loaded with a voltage sensing redistribution dye. To activate ΔF508-CFTR, 10 μM forskolin and the CFTR potentiator, genistein (20 μM), were added along with Cl^−-free medium to each well. The addition of Cl^−-free medium promoted Cl^− efflux in response to ΔF508-CFTR activation and the resulting membrane depolarization was optically monitored using voltage sensor dyes.
Bath Solution #1: (in mM) NaCl 160, KCl 4.5, CaCl2 2, MgCl2 1, HEPES 10, pH 7.4 with NaOH.
Chloride-free bath solution: Chloride salts in Bath Solution #1 are substituted with gluconate salts.
NIH3T3 mouse fibroblasts stably expressing ΔF508-CFTR are used for optical measurements of membrane potential. The cells are maintained at 37° C. in 5% CO2 and 90% humidity in Dulbecco's modified Eagle's medium supplemented with 2 mM glutamine, 10% fetal bovine serum, 1×NEAA, β-ME, 1×pen/strep, and 25 mM HEPES in 175 cm^2 culture flasks. For all optical assays, the cells were seeded at ˜20,000/well in 384-well matrigel-coated plates and cultured for 2 hrs at 37° C. before culturing at 27° C. for 24 hrs. for the potentiator assay. For the correction assays, the cells are cultured at 27° C. or 37° C. with and without compounds for 16-24 hours.

T1 sequence (P13569 with tags, fused parts or gaps DEL508-508): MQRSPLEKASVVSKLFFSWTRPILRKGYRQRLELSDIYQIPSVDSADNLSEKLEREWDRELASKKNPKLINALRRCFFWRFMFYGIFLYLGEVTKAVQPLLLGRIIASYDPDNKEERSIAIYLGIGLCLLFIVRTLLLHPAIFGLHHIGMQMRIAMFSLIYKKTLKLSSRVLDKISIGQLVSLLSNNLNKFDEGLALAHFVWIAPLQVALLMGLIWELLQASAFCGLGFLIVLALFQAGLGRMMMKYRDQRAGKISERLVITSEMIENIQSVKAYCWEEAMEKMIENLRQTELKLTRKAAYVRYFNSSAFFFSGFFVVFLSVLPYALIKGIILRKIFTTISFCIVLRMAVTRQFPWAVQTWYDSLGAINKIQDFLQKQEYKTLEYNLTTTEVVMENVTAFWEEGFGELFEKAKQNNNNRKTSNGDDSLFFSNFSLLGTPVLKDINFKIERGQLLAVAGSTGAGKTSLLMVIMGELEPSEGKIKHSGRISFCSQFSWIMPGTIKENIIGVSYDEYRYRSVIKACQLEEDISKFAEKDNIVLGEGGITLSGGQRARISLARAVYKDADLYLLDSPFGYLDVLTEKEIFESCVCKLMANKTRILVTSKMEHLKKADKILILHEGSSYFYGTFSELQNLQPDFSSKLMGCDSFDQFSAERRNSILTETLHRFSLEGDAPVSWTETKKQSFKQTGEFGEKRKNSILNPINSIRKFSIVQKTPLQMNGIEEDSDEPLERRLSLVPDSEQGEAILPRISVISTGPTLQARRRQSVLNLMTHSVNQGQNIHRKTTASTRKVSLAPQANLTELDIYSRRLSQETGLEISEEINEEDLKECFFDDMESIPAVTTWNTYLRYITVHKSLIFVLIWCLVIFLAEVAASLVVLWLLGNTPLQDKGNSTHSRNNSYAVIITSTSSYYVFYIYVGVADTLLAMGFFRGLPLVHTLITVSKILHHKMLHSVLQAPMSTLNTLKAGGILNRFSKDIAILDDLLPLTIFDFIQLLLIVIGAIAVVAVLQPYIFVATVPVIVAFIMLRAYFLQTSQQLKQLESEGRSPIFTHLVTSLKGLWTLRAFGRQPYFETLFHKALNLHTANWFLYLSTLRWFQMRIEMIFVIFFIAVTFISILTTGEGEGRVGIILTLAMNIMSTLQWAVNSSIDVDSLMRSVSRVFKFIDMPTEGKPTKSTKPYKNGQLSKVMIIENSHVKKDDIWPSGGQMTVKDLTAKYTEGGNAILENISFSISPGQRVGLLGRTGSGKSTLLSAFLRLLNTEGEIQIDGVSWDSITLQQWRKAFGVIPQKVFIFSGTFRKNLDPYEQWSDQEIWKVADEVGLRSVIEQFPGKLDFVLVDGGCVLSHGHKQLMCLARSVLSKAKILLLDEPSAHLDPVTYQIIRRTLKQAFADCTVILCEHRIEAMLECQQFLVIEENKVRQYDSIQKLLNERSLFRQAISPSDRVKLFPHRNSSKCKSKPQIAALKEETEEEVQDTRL

SMILES | Emax [%]
COCC1CCCN1C(c1ccc(NC(=O)C2(c3ccc4c(c3)OCO4)CC2)nc1)c1ccccc1OC (stereo not shown) [Compound 36] | > 100
CCc1cccc(NC(=O)C2(c3ccc4c(c3)OCO4)CC2)n1 [Compound 26] | > 100
COc1ccccc1N(C)c1cccc(NC(=O)C2(c3ccc4c(c3)OCO4)CC2)n1 [Compound 74] | > 100
COCCN1CCN(C(c2ccc(NC(=O)C3(c4ccc5c(c4)OCO5)CC3)nc2)c2ccccc2OC)CC1 (stereo not shown) [Compound 22] | 25 to 100
O=C(Nc1ncccc1OCc1ccccc1)C1(c2ccc3c(c2)OCO3)CC1 [Compound 48] | 25 to 100
CC(C)Cc1cccc(NC(=O)C2(c3ccc4c(c3)OCO4)CC2)n1 [Compound 56] | > 100
COc1ccccc1C(c1ccc(NC(=O)C2(c3ccc4c(c3)OCO4)CC2)nc1)N1CCCC1C(N)=O (stereo not shown) [Compound 45] | > 100
COc1ccccc1Cc1ccc(NC(=O)C2(c3ccc(OC)c(OC)c3)CC2)nc1 [Compound 10] | 25 to 100
COc1ccc(C2(C(=O)Nc3ccc(C(=O)c4ccccc4OC)cn3)CC2)cc1OC [Compound 12] | 25 to 100
COc1ccccc1C(c1ccc(NC(=O)C2(c3ccc4c(c3)OCO4)CC2)nc1)N1CCOCC1 (stereo not shown) [Compound 49] | > 100
COc1cccc(C2(C(=O)Nc3ccc(Cc4ccccc4OC)cn3)CC2)c1 [Compound 34] | 25 to 100
COc1ccccc1C(c1ccc(NC(=O)C2(c3ccc4c(c3)OCO4)CC2)nc1)N1CCCCC1 (stereo not shown) [Compound 32] | > 100
CCc1ccnc(NC(=O)C2(c3ccc(OC)cc3)CC2)c1 [Compound 75] | 25 to 100
Cc1ccccc1Cc1cccc(NC(=O)C2(c3ccc4c(c3)OCO4)CC2)n1 [Compound 5] | > 100
CCCOC(c1ccc(NC(=O)C2(c3ccc4c(c3)OCO4)CC2)nc1)c1ccccc1OC (stereo not shown) [Compound 33] | > 100
O=C(Nc1ccc(CC2CCCCC2)cn1)C1(c2ccc3c(c2)OCO3)CC1 [Compound 16] | > 100
